Counter-ions that a name gives are not always drawn. Like-named read-outs stand apart in the source and are kept apart here.
Legend:
[1] = tested on: Guinea Pig Platelet; assay: Long Acting Inhibitory effect for Guinea Pig Platelet Aggregation (ex vivo), arachidonic acid-induced; type: in vivo, guinea pig (Slc- Hartley); settings: for AA (100 μM)-Induced Platelet Aggregation (%): 0.5 mg/kg, mean ± S.E., 5 guinea pigs
Procedure: A solution of test compound in physiological saline was administered (dosage: 0.5 mg/kg, dosage volume: 2 ml/Kg) to a guinea pig (Slc- Hartley, male, 9 weeks old, weight 520 to 590 g).
Inhibitory effect for platelet aggregation was measured in 1, 3, and 6 hours after administration of the test compounds.
Under sodium pentobarbital anesthesia, blood was collected from the abdominal artery in such the ratio that 3.8% sodium citrate solution/blood was 1 volume/9 volume.
The blood centrifuged for 15 minutes at 180×g at 22° C. to give platelet rich plasma (PRP). The remaining blood was further centrifuged at 3,000 rpm for 10 minutes at 22° C. to give platelet-poor plasma (PPP).
The platelet aggregation test was performed according to Born's method [Born, G.V.R., Nature, 194, 927-929 (1962)], using an aggregometer (model AUTO RAM-61, Rika Denki Kogyo CO., Ltd.). 400 µl of PRP, whose platelets number was prepared to count 50-55×10^4 /μl, was placed in a measuring cuvette and set in the aggregometer. PRP was stirred for 1 minute (at 1,200 rpm) at 37° C. and preliminarily warmed. As an inducer for platelet aggregating, 100 µl of arachidonic acid (sodium salt, Sigma) was added and the platelet aggregation was monitored with an aggregometer in terms of the increase and decrease in light transmission.
Setting the light transmittance for PRP at 0% of platelet aggregating rate, and that for PPP at 100%, the maximum light transmittance for the sample, after the addition of the inducer for platelet aggregating, was regarded as the maximum platelet aggragation rate.
The inhibitory rate for aggregation (%) was calculated from the ratio of the maximum aggregation rate in the test-compound-added group to that in the control group (carrier-added group).

[2] = tested on: Rats Washed Platelet; assay: in vitro rat washed platelet aggregation test (collagen-induced); type: cell-based, rat (Sprague-Dowley); settings: 0.05 h, inducer collagen 4 μg/ml, 37° C., 3 minutes after inducer, read-out: 50% Inhibitory Concentration (IC50), Inhibition of Aggregation for Rats Washed Platelet
Procedure: From the abdominal artery of a male rat (Sprague-Dowley, 8 weeks old) was collected 10 ml of blood with a syringe containing 1.5 ml of ACD (85 mM of sodium citrate, 70 mM of citric acid, 110 mM of glucose) and 20 μg of prostaglandin E1. The blood is placed in a plastic test tube, shaken moderately turning and centrifuged for 10 minutes at 160×g to give platelet rich plasma (PRP). To the prepared PRP was added apyrase (25 μg/ml) and the mixture was layered on 40% bovine serum albumin. The resulting mixture is centrifuged at 1200×g for 25 minutes.
The platelet aggregation reaction was measured by an aggregometer (NKK HEMA TRACER 1 MODEL PAT-6A.6M, Niko bioscience). In a measuring cuvette was placed 245 μl of the washed platelet of which platelet number was adjusted to 5×10^5 /μl and set in the aggregometer. The washed platelet was stirred (1000 rpm) at 37° C. and 3.8 µl of 0.1M of CaCl2 was added thereto. One minute later, 0.5 µl of a solution of a test compound in dimethylsulfoxide was added and 2 minutes later, 1 µl of collagen (Collagen reagent Horm®, HORMON-CHEMIE Munchen GMBH, final concentrate 4 μg/ml) as an inducer for platelet aggregating was added. The platelet aggregation was monitored with an aggregometer in terms of the increase and decrease in transmittancy.

[3] = tested on: sodium arachidonate-induced pulmonary thromboembolic death in mice; assay: Protective effects on sodium arachidonate-induced pulmonary thromboembolic death in mice; type: in vivo, mice (DDY); settings: for ED50: Mus musculus, iv, 1 h, into tail vein, mortality at 1 hour, read-out: ED50 (95% confidence limit)
Procedure: The mice (DDY, 4 weeks old, male, weight 20 to 25 g) in a group of ten are used.
Pulmonary thromboembolic death was induced by injecting 99% solution of sodium arachidonate (Sigma) in physiological saline [100 mg/kg (100% pulmonary thromboembolic death was induced in this amount.)] into tail vein. In order to examine the duration time of the test compound, sodium arachidonate was administrated in 15 minutes and 60 minutes after an administration of a solution of the test compounds in physioligical saline into tail vein. The mortality at 1 hour was determined and ED50 was calculated by probit method.

Structure (SMILES) | IC50 [2] | other results
O=S(=O)(N[C@H]1[C@H]2CC[C@H](C2)[C@@H]1C/C=C\CCCc1nnn[nH]1)c1ccccc1 (relative stereo) [Iaa-b, (1R*,2S*,3S*,4S*)-3-phenylsulfonylamino-2-[(2Z)-6-(5-tetrazolyl)hex-2-enyl]bicyclo[2.2.1]heptane] | 3 nM | AA (100 μM)-Induced Platelet Aggregation (%) ([1]; 0 hours after p.o. administration): 89.7 ± 1.4%; inhibition of arachidonic acid induced platelet aggregation ([1]; 1 and 3 hours after administration): significantly inhibited; AA (100 μM)-Induced Platelet Aggregation (%) ([1]; 1 hour after p.o. administration, * p < 0.05): 2.5 ± 2.0%; AA (100 μM)-Induced Platelet Aggregation (%) ([1]; 3 hours after p.o. administration, * p < 0.05): 19.0 ± 18.0%; inhibition of arachidonic acid induced platelet aggregation ([1]; 6 hours after administration): still observed; AA (100 μM)-Induced Platelet Aggregation (%) ([1]; 6 hours after p.o. administration): 56.3 ± 20.4%; duration of action ([1]; conclusion of ex vivo test): long acting; inhibitory potency, 15 vs 60 minutes pretreatment ([3]; 15 minutes and 60 minutes pretreatment): did not show significantly different inhibitory potency; inhibitory effect of 60 minutes pretreatment ([3]; 60 minutes pretreatment): rather stronger inhibitory effect; ED50 ([3]; pretreatment 15 min): 1.8 mg/kg; ED50 ([3]; pretreatment 60 min): 1.5 mg/kg; duration of action ([3]; conclusion of mouse test): long-acting
O=S(=O)(N[C@H]1[C@H]2CC[C@H](C2)[C@@H]1C/C=C\CCCc1nn[nH]n1)c1ccc(Br)cc1 (relative stereo) [Iac-b, (1R*,2S*,3S*,4S*)-3-(4-bromophenylsulfonylamino-2-[(2Z)-6-(5-tetrazolyl)hex-2-enyl]bicyclo[2.2.1]heptane] | 2 nM | 
Cc1ccc(S(=O)(=O)N[C@@H]2[C@@H](C/C=C\CCCc3nnn[nH]3)C[C@H]3C[C@@H]2C3(C)C)cc1 [Ieb-b, (1R,2R,3S,5S)-2-(p-tolylsulfonylamino)-3-[(2Z)-6-(5-tetrazolyl)hex-2-enyl]-6,6-dimethylbicyclo[3.1.1]-heptane] | 4 nM | 
CC1(C)[C@H]2C[C@H](C/C=C\CCCc3nnn[nH]3)[C@@H](NS(=O)(=O)c3ccc(Br)cc3)[C@@H]1C2 [Iec-b, (1R,2R,3S,5S)-2-[(4-bromophenyl)sulfonylamino]-3-[(2Z)-6-(5-tetrazolyl)hex-2-enyl]-6,6-dimethylbicyclo[3.1.1]heptane] | 2 nM | 
CC1(C)[C@H]2C[C@H](C/C=C\CCCc3nnn[nH]3)[C@@H](NS(=O)(=O)c3ccccc3Cl)[C@@H]1C2 [Iel-b, (1R,2R,3S,5S)-2-[(2-chlorophenyl)sulfonylamino]-3-[(2Z)-6-(5-tetrazolyl)hex-2-enyl]-6,6-dimethylbicyclo [3.1.1]heptane] | 20 nM | 
CC1(C)[C@H]2C[C@H](C/C=C\CCCc3nnn[nH]3)[C@@H](NS(=O)(=O)c3ccccc3)[C@@H]1C2 [Iea-b, (1R,2R,3S,5S)-2-phenylsulfonylamino-3-[(2Z)-6-(5-tetrazolyl)hex-2-enyl]-6,6-dimethylbicyclo[3.1.1]heptane] | 20 nM | 
CC1(C)[C@H]2C[C@H](C/C=C\CCCc3nnn[nH]3)[C@@H](NS(=O)(=O)c3ccc(Cl)cc3)[C@@H]1C2 [Iej-b, (1R,2R,3S,5S)-2-[(4-chlorophenyl)sulfonylamino]-3-[(2Z)-6-(5-tetrazolyl)hex-2-enyl]-6,6-dimethylbicyclo [3.1.1]heptane] | 7 nM | 
O=S(=O)(N[C@@H]1[C@@H](C/C=C\CCCc2nnn[nH]2)[C@H]2CC[C@@H]1O2)c1ccccc1 (relative stereo) [Iba-b, (1R*,2R*,3R*,4S*)-3-phenylsulfonylamino-2-[(2Z)-6-(5-tetrazolyl)hex-2-enyl]-7-oxabicyclo[2.2.1]heptane] | 20 nM | 
COc1ccc(S(=O)(=O)N[C@@H]2[C@@H](C/C=C\CCCc3nnn[nH]3)C[C@H]3C[C@@H]2C3(C)C)cc1 [Iee-b, (1R,2R,3S,5S)-2-[(4-methoxyphenyl)sulfonylamino]-3-[(2Z)-6-(5-tetrazolyl)hex-2-enyl]-6,6-dimethylbicyclo [3.1.1]heptane] | 5 nM | 
COc1ccc(S(=O)(=O)N[C@H]2[C@H]3CC[C@H](C3)[C@@H]2C/C=C\CCCc2nnn[nH]2)cc1 (relative stereo) [Iae-b, (1R*,2S*,3S*,4S*)-3-(4-methoxyphenylsulfonylamino)-2-[(2Z)-6-(5-tetrazolyl)hex-2-enyl]bicyclo[2.2.1]heptane] | 2 nM | 
O=S(=O)(N[C@H]1[C@H](C/C=C\CCCc2nnn[nH]2)[C@H]2CC[C@@H]1O2)c1ccccc1 (relative stereo) [Ica-b, (1R*,2S*,3S*,4S*)-3-phenylsulfonylamino-2-[(2Z)-6-(5-tetrazolyl)hex-2-enyl]-7-oxabicyclo[2.2.1]heptane] | 10 nM | 
Cc1ccc(S(=O)(=O)N[C@H]2[C@H]3CC[C@H](C3)[C@@H]2C/C=C\CCCc2nn[nH]n2)cc1 (relative stereo) [Iab-b, Sodium salt of (1R*,2S*,3S*,4S*)-2-[(2Z)-6-(5-tetrazolyl)hex-2-enyl]-3-(4-tolylsulfonylamino)bicyclo[2.2.1]-hepatane] | 2 nM | 
CC1(C)[C@H]2C[C@H](C/C=C\CCCc3nnn[nH]3)[C@@H](NS(=O)(=O)c3ccc(-c4ccccc4)cc3)[C@@H]1C2 [Ieh-b, (1R,2R,3S,5S)-2-[(4-biphenylyl)sulfonylamino]-3-[(2Z)-6-(5-tetrazolyl)hex-2-enyl]-6,6-dimethylbicyclo[3.1.1]heptane] | 10 nM | 
O=S(=O)(N[C@H]1[C@H]2CC[C@H](C2)[C@@H]1C/C=C\CCCc1nnn[nH]1)c1ccc(O)cc1 (relative stereo) [Iad-b, (1R*,2S*,3S*,4S*)-3-(4-hydroxyphenylsulfonylamino)-2-[(2Z)-6-(5-tetrazolyl)hex-2-enyl]bicyclo[2.2.1]heptane] | 2 nM | 
CC1(C)[C@H]2C[C@H](C/C=C\CCCc3nnn[nH]3)[C@@H](NS(=O)(=O)c3cccc(Cl)c3)[C@@H]1C2 [Iek-b, (1R,2R,3S,5S)-2-[(3-chlorophenyl)sulfonylamino]-3-[(2Z)-6-(5-tetrazolyl)hex-2-enyl]-6,6-dimethyl-bicyclo [3.1.1]heptane] | 5 nM | 
CC1(C)[C@H]2C[C@H](NS(=O)(=O)c3ccccc3)[C@@H](C/C=C\CCCc3nn[nH]n3)[C@@H]1C2 [Ida-b] | 3 nM | 
O=S(=O)(N[C@H]1[C@H]2CC[C@H](C2)[C@@H]1C/C=C\CCCc1nnn[nH]1)c1ccccc1 [(+)-Iaa-b, (1R,2S,3S,4S)-3-phenylsulfonylamino-2-[(2Z)-6-(5-tetrazolyl)hex-2-enyl]bicyclo[2.2.1]heptane] | 2 nM | 
CC1(C)[C@H]2C[C@H](C/C=C\CCCc3nnn[nH]3)[C@@H](NS(=O)(=O)c3ccc4ccccc4c3)[C@@H]1C2 [Iei-b, (1R,2R,3S,5S)-2-[(2-naphthyl)sulfonylamino]-3-[(2Z)-6-(5-tetrazolyl)hex-2-enyl]-6,6-dimethylbicyclo[3.1.1]-heptane] | 9 nM | 

— patent publication US4916231A, “Alkenyltetrazole derivatives” (Shionogi & Co., Ltd., priority 1988, dated 1990)
